Source: patent US20120115806A1 (SANOFI, priority 2009, published 2012)

Assays:
[1] = system: Thymidine Phosphorylase (TP) expression in MCF-7 breast carcinoma cells; settings: especially with MCF-7 breast carcinoma cells; abstract, French Pharmacology Society Conference 2008; cited from earlier work
[2] = Phase I/II study: pharmacokinetics and drug interaction study; settings: patients, part 1; parent and metabolite
[3] = system: patients with metastatic breast cancer; assay: Phase I/II study: tolerance and treatment characteristics
Description: Part 2: the antitumor activity and the characterization of the tolerance profile were determined at the recommended dose.
The capecitabine is administered orally twice a day, in the morning and evening, from day D1 to day D14 (from the 1st to the 14th day of the cycle).
The doses could be reduced and the treatment cycle duration could be extended in the case of a severe adverse event (AE). The treatment was continued until disease progression, the presence of an unacceptable AE or the withdrawal of patient consent.
A physical examination, complete differential leukocyte and blood counts, and blood chemistry analyses were carried out before the recruitment of the patients and regularly during treatment. Tumor evaluation by radiology was carried out at recruitment of the patients and every 6 weeks. The responses were confirmed by 2 evaluations at least 4 weeks apart. Supplementary data were collected every 6 weeks until the date the study was stopped.

[4] = system: taxane-resistant metastatic breast cancer; settings: 1-h i.v. infusion every 3 weeks; Ann. Oncol. 2008, 19(9), 1547-1552; cited from earlier work
[5] = system: patients with metastatic breast cancer previously treated with anthracyclines and taxanes; settings: cabazitaxel (D1) in combination with capecitabine (twice a day, D1-14)
Excerpt: The main inclusion criteria were an age of 18 or older, a histologically proven metastatic or locally recurrent breast cancer that was inoperable, an Eastern Cooperative Oncology Group performance status (ECOG PS) of 0 to 2, prior exposure to taxanes and to anthracyclines, and adequate hematological, renal and hepatic function.
The main exclusion criteria were a simultaneous cancer, more than one chemotherapy treatment for metastatic cancer, prior exposure to capecitabine, or uncontrolled significant comorbid conditions.
Thirty-three patients with metastatic breast cancer were included in the study, all previously treated with anthracyclines and taxanes: 15 patients for part 1 and 18 for part 2.
The dose-limiting toxicities (DLTs), i.e. the list of events to be monitored, which make it possible to guide the dose escalation, were first of all predefined in the protocol in accordance with the NCI-CTCAE classification scale, version 3.
The increase in doses was studied in groups of three patients as long as no DLT was observed.

[6] = DL2: 20 mg/m^2 cabazitaxel + 2 × 1000 mg/m^2/day capecitabine for 14 days, 21 patients
[7] = Total, all dose levels, 33 patients

Row | Compound | induction of TP expression [1] | pharmacokinetics affected by coadministration of the other agent [2] | Number of patients with dose reduction [3, 6] | Number of patients with dose reduction [3, 7] | efficacy in taxane-resistant metastatic breast cancer [4] | maximal administered dose (MAD) [5] [mg/m^2] | recommended dose (RD) ([5]; highest dose at which less than 33% of patients exhibited a DLT) [mg/m^2]
1 | 4α-acetoxy-2α-benzoyloxy-5β,20-epoxy-1β-hydroxy-β,10β-dimethoxy-9-oxotax-11-en-13α-yl (2R,3S)-3-tert-butoxycarbonylamino-2-hydroxy-3-phenylpropionate [cabazitaxel] | induces TP expression | do not appear to be affected | 4 | 10 | can be effective |  | 
2 | CCCCCOC(=O)Nc1nc(=O)n([C@@H]2O[C@H](C)[C@@H](O)[C@H]2O)cc1F [capecitabine, 5′-deoxy-5-fluoro-N4-(pentyloxycarbonyl)cytidine N-[1-(5-deoxy-beta-D-ribofuranosyl)-5-fluoro-2-oxo-1,2-dihydropyrimidin-4-yl]carbamic acid pentyl ester] |  | vice versa | 3 | 7 |  | 1000 | 1000
